{
  "source": "patent US20260053811A1",
  "about": "“METHODS OF TREATING HYPERTENSION IN OBESE SUBJECTS” (Mineralys Therapeutics, Inc., priority 2022, published 2026)",
  "tested_on": "hypertensive subjects",
  "test": "Seated automated office blood pressure (AOBP) in randomized, placebo-controlled, dose-ranging study",
  "type": "in vivo, human",
  "conditions": "100 mg QD, FAS; for Seated AOBP DBP change from baseline (CFB), Mean / Seated AOBP DBP, Mean / Seated AOBP SBP change from baseline (CFB), Mean / Seated AOBP SBP, Mean: Part 2",
  "protocol": "A randomized, double-blinded, placebo-controlled, dose-ranging, multicenter study was conducted to evaluate the effect of orally administered Compound A HBr on blood pressure for the treatment of hypertension in male and female subjects ≥18 years of age.\nThe study consists of two parts. For enrollment into Part 1 of the study, a subject's value of plasma renin activity (PRA) must be ≤1 ng/mL/h based on morning measurement. If the value of PRA >1 ng/mL/h based on morning measurement, then subjects may be eligible to enter Part 2 of the study.\nFor Part 1, 163 enrolled subjects ≥18 years of age were randomized into 6 equal treatment groups (1:1:1:1:1:1) to 12.5 mg BID, 25 mg BID, 12.5 mg QD, 50 mg QD, 100 mg QD, or placebo. After a review of interim clinical data, the 2 lowest dose levels (12.5 mg QD and 12.5 mg BID) were stopped for future randomization due to a lack of consistent meaningful reduction of blood pressure, but the patients randomized to that point remained in the study through completion. Thus, after the review of interim clinical data, subjects were randomized into 4 equal treatment groups (1:1:1:1) to 25 mg BID, 50 mg QD, 100 mg QD, or placebo.\nFor Part 2, 36 enrolled subjects ≥18 years of age were randomized (5:1) to either 100 mg QD Compound A HBr or placebo such that the Compound A HBr treatment group consisted of approximately 30 subjects and the placebo treatment group will consist of approximately 6 subjects.\nSubjects orally administered the assigned study drug (Compound A HBr or placebo) according to the assigned dosing regimen for 8 weeks beginning on Study Day 1. All subjects in Part 1 (regardless of dosing group) received BID dosing to preserve the integrity of the blind; active drug is administered as the morning dose for all QD dose groups. Subjects returned to the research facility or were seen by the clinical investigator or approved home health care professional at the end of Study Weeks 1, 2, 3, 4, 5, 6, 7, and 8 (±2 days) for protocol-defined efficacy and safety assessments and procedures, assessment of adverse events (AEs), and confirmation of compliance with study drug usage. Subjects also completed a telephone visit and blood pressure (BP) check at home approximately 3 days post last dose of study drug. Subjects attended up to 14 full clinic visits, including a pre-Screening visit, a Screening/start of Placebo Run-in visit, a second visit during Placebo Run-in, a clinic visit to initiate the ABPM procedure, a Randomization visit, 8 weekly visits during double-blind treatment, and an end-of-study visit scheduled 4 weeks after the last study treatment for final efficacy and safety assessments.\nAn automated oscillometric sphygmomanometer device was used to measure the subjects' systolic and diastolic blood pressure in office after approximately 5 minutes of rest in the seated position.\nThe primary endpoint is the change in office-measured (mean of last 2 of 5 unattended measurements using an automated oscillometric sphygmomanometer device after approximately 5 minutes of rest in the seated position) systolic blood pressure (SBP) from baseline to the end of Study Week 8.\nSecondary endpoints of this study were: • (a) Change in 24-hour ambulatory blood pressure monitoring (ABPM) parameters (systolic and diastolic) from baseline to the end of Study Week 7. • (b) Change in office-measured SBP from baseline to the end of Study Weeks 1, 2, 3, 4, 5, 6, and 7. • (c) Change in office-measured diastolic blood pressure (DBP) from baseline to the end of Study Weeks 1, 2, 3, 4, 5, 6, 7, and 8. • (d) Proportion of subjects who achieve office-measured BP of ≤130/80 mm Hg by the end of Study Week 8.",
  "data": [
    {"smiles": "CC(=O)N[C@H]1CC[C@H](NC(=O)CN2CCN(c3nncc(-c4ccc(C)cc4)n3)CC2)CC1", "note": "[Compound A HBr]", "values": [
      {"measurement": "Seated AOBP DBP change from baseline (CFB), Mean (SD)", "setting": "Week 4, Part 1", "result": "−6.36 (6.75) mmHg"},
      {"measurement": "Seated AOBP DBP, Mean (SD)", "setting": "Week 4, Part 1", "result": "71.60 (8.62) mmHg"},
      {"measurement": "Seated AOBP SBP change from baseline (CFB), Mean (SD)", "setting": "Week 4, Part 1", "result": "−14.60 (11.66) mmHg"},
      {"measurement": "Seated AOBP SBP, Mean (SD)", "setting": "Week 4, Part 1", "result": "129.76 (12.66) mmHg"},
      {"measurement": "Seated AOBP DBP change from baseline (CFB), Mean", "setting": "Week 4", "result": "−6.92", "unit": "mmHg"},
      {"measurement": "Seated AOBP DBP, Mean", "setting": "Week 4", "result": 71.36, "unit": "mmHg"},
      {"measurement": "Seated AOBP SBP change from baseline (CFB), Mean", "setting": "Week 4", "result": "−16.04", "unit": "mmHg"},
      {"measurement": "Seated AOBP SBP, Mean", "setting": "Week 4", "result": 125.44, "unit": "mmHg"},
      {"measurement": "Seated AOBP DBP change from baseline (CFB), Mean (SD)", "setting": "Week 5, Part 1", "result": "−5.36 (8.12) mmHg"},
      {"measurement": "Seated AOBP DBP, Mean (SD)", "setting": "Week 5, Part 1", "result": "72.60 (11.27) mmHg"},
      {"measurement": "Seated AOBP SBP change from baseline (CFB), Mean (SD)", "setting": "Week 5, Part 1", "result": "−13.40 (16.59) mmHg"},
      {"measurement": "Seated AOBP SBP, Mean (SD)", "setting": "Week 5, Part 1", "result": "130.96 (14.84) mmHg"},
      {"measurement": "Seated AOBP DBP change from baseline (CFB), Mean", "setting": "Week 5", "result": "−6.35", "unit": "mmHg"},
      {"measurement": "Seated AOBP DBP, Mean", "setting": "Week 5", "result": 71.31, "unit": "mmHg"},
      {"measurement": "Seated AOBP SBP change from baseline (CFB), Mean", "setting": "Week 5", "result": "−12.87", "unit": "mmHg"},
      {"measurement": "Seated AOBP SBP, Mean", "setting": "Week 5", "result": 127.92, "unit": "mmHg"},
      {"measurement": "Seated AOBP DBP change from baseline (CFB), Mean (SD)", "setting": "Week 6, Part 1", "result": "−3.33 (7.96) mmHg"},
      {"measurement": "Seated AOBP DBP, Mean (SD)", "setting": "Week 6, Part 1", "result": "74.77 (10.12) mmHg"},
      {"measurement": "Seated AOBP SBP change from baseline (CFB), Mean (SD)", "setting": "Week 6, Part 1", "result": "−6.62 (15.69) mmHg"},
      {"measurement": "Seated AOBP SBP, Mean (SD)", "setting": "Week 6, Part 1", "result": "138.73 (14.13) mmHg"},
      {"measurement": "Seated AOBP DBP change from baseline (CFB), Mean", "setting": "Week 6", "result": "−7.25", "unit": "mmHg"},
      {"measurement": "Seated AOBP DBP, Mean", "setting": "Week 6", "result": 70.65, "unit": "mmHg"},
      {"measurement": "Seated AOBP SBP change from baseline (CFB), Mean", "setting": "Week 6", "result": "−13.29", "unit": "mmHg"},
      {"measurement": "Seated AOBP SBP, Mean", "setting": "Week 6", "result": 127.58, "unit": "mmHg"},
      {"measurement": "Seated AOBP DBP change from baseline (CFB), Mean (SD)", "setting": "Week 7, Part 1", "result": "−4.12 (8.55) mmHg"},
      {"measurement": "Seated AOBP DBP, Mean (SD)", "setting": "Week 7, Part 1", "result": "73.48 (11.08) mmHg"},
      {"measurement": "Seated AOBP SBP change from baseline (CFB), Mean (SD)", "setting": "Week 7, Part 1", "result": "−11.04 (16.75) mmHg"},
      {"measurement": "Seated AOBP SBP, Mean (SD)", "setting": "Week 7, Part 1", "result": "134.32 (18.32) mmHg"},
      {"measurement": "Seated AOBP DBP change from baseline (CFB), Mean", "setting": "Week 7", "result": "−6.13", "unit": "mmHg"},
      {"measurement": "Seated AOBP DBP, Mean", "setting": "Week 7", "result": 71.61, "unit": "mmHg"},
      {"measurement": "Seated AOBP SBP change from baseline (CFB), Mean", "setting": "Week 7", "result": "−11.66", "unit": "mmHg"},
      {"measurement": "Seated AOBP SBP, Mean", "setting": "Week 7", "result": 128.75, "unit": "mmHg"},
      {"measurement": "LSM Δ from Placebo, change from baseline in seated AOBP SBP (MMRM)", "setting": "Week 8, Part 1", "result": "−7.81", "unit": "mmHg"},
      {"measurement": "LSM Δ with Placebo, seated AOBP DBP (MMRM)", "setting": "Week 8, Part 1", "result": "−4.11", "unit": "mmHg"},
      {"measurement": "Modelled (MMRM) LSM (SEM) change from baseline, seated AOBP DBP", "setting": "Week 8, Part 1", "result": "−5.75 (1.77) mmHg"},
      {"measurement": "Modelled (MMRM) LSM (SEM) change from baseline, seated AOBP SBP", "setting": "Week 8, Part 1", "result": "−11.92 (2.77) mmHg"},
      {"measurement": "Seated AOBP DBP change from baseline (CFB), Mean (SD)", "setting": "Week 8, Part 1", "result": "−5.46 (7.85) mmHg"},
      {"measurement": "Seated AOBP DBP, Mean (SD)", "setting": "Week 8, Part 1", "result": "73.00 (9.43) mmHg"},
      {"measurement": "Seated AOBP SBP change from baseline (CFB), Mean (SD)", "setting": "Week 8, Part 1", "result": "−14.08 (13.26) mmHg"},
      {"measurement": "Seated AOBP SBP, Mean (SD)", "setting": "Week 8, Part 1", "result": "131.28 (14.13) mmHg"},
      {"measurement": "Subjects with seated AOBP SBP/DBP ≤130/80 mmHg: No", "setting": "Week 8, Part 1", "result": "21 (70.0) n (%)"},
      {"measurement": "Subjects with seated AOBP SBP/DBP ≤130/80 mmHg: Yes", "setting": "Week 8, Part 1", "result": "9 (30.0) n (%)"},
      {"measurement": "Seated AOBP DBP change from baseline (CFB), Mean", "setting": "Week 8", "result": "−5.68", "unit": "mmHg"},
      {"measurement": "Seated AOBP DBP, Mean", "setting": "Week 8", "result": 72.17, "unit": "mmHg"},
      {"measurement": "Seated AOBP SBP change from baseline (CFB), Mean", "setting": "Week 8", "result": "−11.20", "unit": "mmHg"},
      {"measurement": "Seated AOBP SBP, Mean", "setting": "Week 8", "result": 129.30, "unit": "mmHg"}
    ]}
  ]
}
